# Source: patent US20060270862A1, “Analogs of discodermolide and dictyostatin-1, intermediates therefor and methods of synthesis thereof” (priority 2002, published 2006)
# Where two headings read alike, the source gives them in different places.
# Key:
# [1] = ester bond, 2,4,6-trichlorobenzoyl chloride / Et3N / DMAP, toluene, 25.0 °C, 16.0 h
# tubulin = type: biochemical, bovine; conditions: for MT stabilizing activity (%): tubulin assembly induced by test agent at 10 μM vs. 10 μM paclitaxel (100%), single determinations at 30° C.; for properties of the induced polymer: speed of induction, resistance to cold-induced disassembly (in words): FIGS. 6A, 6C, 6D, analogs at somewhat lower potencies than discodermolide; for microtubule hypernucleation activity (in words): comparison with analog 40, FIGS. 6A-D and Table 1
# Description: (§1) General. Tubulin without microtubule-associated proteins was prepared from fresh bovine brains[32] The normoisotopic and tritiated forms of paclitaxel and normoisotopic docetaxel were provided by the Drug Synthesis and Chemistry Branch, National Cancer Institute. (+)-Discodermolide was from Novartis Pharmaceutical Corporation. Ca^2+- and Mg^2+-free RPMI-1640 culture medium were from GIBCO/BRL-Life Technologies. Fetal bovine serum (FBS) was from Hyclone. Cell lines were obtained from American Type Culture Collection (Manassas, Va.).
# Tubulin Polymerization[32] Tubulin assembly was followed in a Beckman-Coulter 7400 spectrophotometer, equipped with an electronic Peltier temperature controller, reading absorbance (turbidity) at 350 nm. Reaction mixtures (0.25 mL final volume) contained tubulin (final concentration 10 μM; 1 mg/mL), monosodium glutamate (0.8 M from a stock solution adjusted to pH 6.6 with HCl), DMSO (final volume 4% v/v), and differing concentrations of test agent where indicated. Reaction mixtures without test agent were cooled to 0° C. and added to cuvettes held at 0.25-0.5° C. in the spectrophotometer. Test agent in DMSO was then rapidly mixed in the reaction mixture. Each run contained one positive control (paclitaxel, 10 μM final concentration) and one negative control (DMSO only). Baselines were established at 0.25-2.5° C. and temperature was rapidly raised to 30° C. (in approximately 1 min) and held there for 20 min.
# MDA-MB231 (breast) = assay: Cell growth inhibition (MTS), MDA-MB231; type: cell-based, human
# Description: (§2) Cell Growth Inhibition[34] Cells were plated (500-2000 cells/well depending on the cell line) in 96-well microplates, allowed to attach and grow for 48 h, then treated with vehicle (4% DMSO, a concentration that allowed doubling times of 24 h or less) or test agent (50, 10, 2, 0.4 and 0.08 μM for the new agents; 0.001, 0.005, 0.010, 0.020 and 0.100 μM for paclitaxel and discodermolide) for the given times. One plate consisted of cells from each line used for a time zero cell number determination. The other plates in a given determination contained eight wells of control cells, eight wells of medium and each agent concentration tested in quadruplicate. Cell numbers were obtained spectrophotometrically (absorbance at 490 nm minus that at 630 nm) in a Dynamax plate reader after treatment with 3-(4,5-dimethylthiazol-2-yl)-5-(3-carboxymethoxyphenyl)-2-(4-sulfophenyl)-2H-tetrazolium (MTS) using phenazine methanesulfonate as the electron acceptor. After initial screening with the above 5-fold dilutions, fifty percent growth inhibitory concentration (GI50) values were determined for each agent by repeating the screen using 2-fold dilutions (five concentrations) centered on the initial estimated GI50 concentration, again in quadruplicate.
# PC3 (prostate) = assay: Cell growth inhibition (MTS), PC3; type: cell-based; conditions: Homo sapiens, 72 h, read-out: GI50 PC3 (prostate)
# Description: as §2
# 2008 (ovarian) = assay: Cell growth inhibition (MTS), 2008; type: cell-based, human
# Description: as §2
# [2] = test system: paclitaxel binding site on tubulin; assay: Paclitaxel binding site inhibition assay ([3H]paclitaxel displacement from microtubules); design: species or system bovine; conditions: for Displacement of [3H]paclitaxel (%): 4 μM test agent, 2 μM [3H]paclitaxel, microtubules from 2 μM tubulin and 20 μM dideoxyGTP
# Description: as §1
# Paclitaxel binding site inhibition assay. A stock solution of [^3H]paclitaxel (26.8 μM, 16.2 Ci/mmol), obtained from the NCI, was prepared in 37% (v/v) DMSO. The test agents were prepared in 25% (v/v) DMSO-0.75 M monosodium glutamate (prepared from a 2M stock solution adjusted to pH 6.6 with HCl). The radiolabeled paclitaxel and test agents, as indicated in terms of final concentrations, were mixed in equal volumes and warmed to 37° C. A reaction mixture (50 μL) containing 0.75 M monosodium glutamate, 4.0 μM tubulin, and 40 μM ddGTP (a non-hydrolyzable analog of GTP) was prepared and incubated at 37° C. for 30 min to preform microtubules. An equivalent volume of drug mixture with [^3H]paclitaxel was added to preformed polymer and incubated for 30 min at 37° C. Bound [^3H]paclitaxel was separated from free drug by centrifugation of the reaction mixtures at 14000 rpm for 20 min at room temperature. Non-specific binding was determined by addition of a 12-fold excess of docetaxel. Radioactive counts from the supernatant (50 μL) were determined by scintillation spectrometry. Bound [^3H]paclitaxel was calculated from the following: total paclitaxel added to each reaction mixture minus the paclitaxel present in the supernatant (free drug). The % bound values were normalized to the control values with no inhibitor added.
# [3] = Homo sapiens, MDA-MB-231, 48 h, read-out: GI50 MDA-MB-231 (breast)
# [4] = Homo sapiens, MDA-MB-231, read-out: 50% growth inhibitory concentration
# [5] = Homo sapiens, 48 h, read-out: GI50 2008 (ovary)
# [6] = Table 2, applies to both human cancer cell lines, breast (MDA-MB-231) and ovarian (2008), read-out: 50% growth inhibitory concentration
smiles,measurement,setting,value
C=C/C=C\[C@H](C)[C@@H]1OC(=O)/C=C\C=C\[C@@H](C)[C@@H](O[Si](C)(C)C(C)(C)C)C[C@H](O[Si](C)(C)C(C)(C)C)/C=C\[C@H](C)[C@H](O)[C@@H](C)C[C@@H](C)CCC(O[Si](C)(C)C(C)(C)C)[C@@H]1C (stereo partly shown),"ring closure, yield of all isomers","[1]; from C=C/C=C\[C@H](C)[C@H](O)[C@@H](C)C(CC[C@H](C)C[C@H](C)[C@@H](O)[C@@H](C)/C=C\[C@H](C[C@H](O[Si](C)(C)C(C)(C)C)[C@H](C)/C=C/C=C\C(=O)O)O[Si](C)(C)C(C)(C)C)O[Si](C)(C)C(C)(C)C, 1.77 mM, 2 steps",49%
C=C/C=C\[C@H](C)[C@H]1OC(=O)/C=C\C=C\[C@@H](C)[C@H](OCc2ccc(OC)cc2)CC/C=C\[C@H](C)[C@H](OCc2ccc(OC)cc2)[C@@H](C)/C=C\CC[C@@H](OCc2ccc(OC)cc2)[C@H]1C,"ring closure, yield of all isomers","[1]; from C=C/C=C\[C@H](C)[C@@H](O)[C@H](C)[C@@H](CC/C=C\[C@H](C)[C@@H](OCc1ccc(OC)cc1)[C@@H](C)/C=C\CC[C@@H](OCc1ccc(OC)cc1)[C@H](C)/C=C/C=C\C(=O)O)OCc1ccc(OC)cc1, 2 steps",79%
C=C/C=C\[C@H](C)[C@H]1OC(=O)CCCCCCCC/C=C\[C@H](C)[C@H](OCc2ccc(OC)cc2)[C@@H](C)/C=C\CC[C@@H](OCc2ccc(OC)cc2)[C@H]1C,"ring closure, yield of all isomers","[1]; from C=C/C=C\[C@H](C)[C@@H](O)[C@H](C)[C@@H](CC/C=C\[C@H](C)[C@@H](OCc1ccc(OC)cc1)[C@@H](C)/C=C\CCCCCCCCC(=O)O)OCc1ccc(OC)cc1, 1.93 mM",57%
"C=C/C=C\[C@H](C)[C@H](OC(N)=O)[C@@H](C)[C@H](O)CC/C=C\[C@H](C)[C@H](O)[C@@H](C)/C=C\CC[C@@H]1OC(=O)[C@H](C)[C@@H](O)[C@@H]1C [Compound 40, Carbamic acid, (1S,2S,3R,6Z,8S,9S,10S,11Z)-3,9-dihydroxy-14-[(2S,3S,4S,5R)-4-hydroxy-3,5-dimethyl-6-oxotetrahydropyran-2-yl]-2,8,10-trimethyl-1-[(1S,2Z)-1-methylpenta-2,4-dienyl]tetradeca-6,11-dienyl ester]",MT stabilizing activity (%),tubulin,11%
same,GI50,"MDA-MB231 (breast); Homo sapiens, MDA-MB-231, 72 h, read-out: GI50 MDA-MB231 (breast)",2.1 ± 1.8 µM
same,GI50,PC3 (prostate),7.5 ± 2 µM
same,GI50,"2008 (ovarian); Homo sapiens, 72 h, read-out: GI50 2008 (ovarian)",5.2 ± 1 µM
same,Displacement of [3H]paclitaxel (%),[2],21 ± 1%
C=C/C=C\[C@H](C)[C@H](OC(N)=O)[C@@H](C)[C@H](O)CC/C=C\[C@H](C)[C@H](O)[C@@H](C)/C=C\CC[C@@H]1OC(=O)[C@H](C)[C@@H](OCOC)[C@H]1C [Compound 41],"properties of the induced polymer: speed of induction, resistance to cold-induced disassembly (in words)",tubulin,more rapid polymer-inducing and cold-resistant properties
same,microtubule hypernucleation activity (in words),tubulin,better microtubule hypernucleation activities than the analog 40
same,MT stabilizing activity (%),tubulin,27%
same,50% growth inhibitory (GI50) concentration (in words),"MDA-MB231 (breast); cellular activity, cell line not given",submicromolar
same,affinity for the paclitaxel binding site on tubulin (in words),[2],considerable affinity
same,Displacement of [3H]paclitaxel (%),[2],57 ± 2%
same,"displacement of [3H]paclitaxel from microtubules, comparison (in words)",[2]; 2-fold molar excess of test agent,better than paclitaxel and at almost the same potency as discodermolide
"C=C/C=C\[C@H](C)[C@H](OC(N)=O)[C@@H](C)[C@H](O)CC/C=C\[C@H](C)[C@H](O)[C@@H](C)/C=C\CC[C@@H]1O[C@@H](OC)[C@H](C)[C@@H](OCOC)[C@H]1C [Compound 42, Carbamic acid, (1S,2S,3R,6Z,8S,9S,1S,11Z)-3,9-dihydroxy-14-[(2S,3S,4S,5R,6R)-6-methoxy-4-methoxymethoxy-3,5-dimethyltetrahydropyran-2-yl]-2,8,10-trimethyl-1-[(1S,2Z)-1-methylpenta-2,4-dienyl]tetradeca-6,11-dienyl ester]","properties of the induced polymer: speed of induction, resistance to cold-induced disassembly (in words)",tubulin,more rapid polymer-inducing and cold-resistant properties
same,microtubule hypernucleation activity (in words),tubulin,better microtubule hypernucleation activities than the analog 40
same,MT stabilizing activity (%),tubulin,11%
same,Displacement of [3H]paclitaxel (%),[2],19 ± 2%
"C=CC=C[C@H](C)[C@H]1OC(=O)CCCCCCCCC=C[C@H](C)[C@H](O)[C@@H](C)C=CCC[C@@H](O)[C@H]1C [Compound 43, (1S,13S,14S,15S,20R,21R,22R)-14,20-Dihydroxy-13,15,21-trimethyl-22-(1-methylpenta-2,4-dienyl)-oxacyclodocosa-11,16-dien-2-one]",GI50,MDA-MB231 (breast); [3],27 ± 1 µM
same,IC50,MDA-MB231 (breast); [4],15 to 30 µM
same,GI50,2008 (ovarian); [5],16 ± 1 µM
same,Displacement of [3H]paclitaxel (%),"[2]; N = 6, means ± SD",18 ± 5%
"C=CC=C[C@H](C)[C@@H](O)[C@H](C)[C@H](O)CCC=C[C@H](C)[C@@H](O)[C@@H](C)C=CCCCCCCCCCO [Compound 47, (12S,13S,14S,19R,20R,21R,22S)-12,14,20,22-Tetramethylhexacosa-10,15,23,25-tetraene-1,13,19,21-tetraol]",GI50,MDA-MB231 (breast); [3],18 ± 1 µM
same,IC50,MDA-MB231 (breast); [4],15 to 30 µM
same,GI50,2008 (ovarian); [5],22 ± 5 µM
same,Displacement of [3H]paclitaxel (%),"[2]; N = 6, means ± SD",21 ± 2%
"C=CC=C[C@H](C)[C@@H](O)[C@H](C)[C@H](O)CCC=C[C@H](C)[C@@H](O)[C@@H](C)C=CCCCCCCCCC(=O)OC [Compound 48, (12S,13S,14S,19R,20R,21R,22S)-13,19,21-Trihydroxy-12,14,20,22-tetramethylhexacosa-10,15,23,25-tetraenoic acid methyl ester]",GI50,MDA-MB231 (breast); [3],26 ± 3 µM
same,IC50,MDA-MB231 (breast); [4],15 to 30 µM
same,GI50,2008 (ovarian); [5],19 ± 2 µM
same,Displacement of [3H]paclitaxel (%),"[2]; N = 6, means ± SD",17 ± 1%
"C=CC=C[C@H](C)[C@@H](O)[C@H](C)[C@H](O)CCC=C[C@H](C)[C@@H](O)[C@@H](C)C=CCCCCCCCCC(=O)O [Compound 49, (12S,13S,14S,19R,20R,21R,22S)-13,19,21-Trihydroxy-12,14,20,22-tetramethylhexacosa-10,15,23,25-tetraenoic acid]",GI50,"MDA-MB231 (breast); Homo sapiens, MDA-MB-231, 48 hours continuous exposure, mean ± SD, N = 4, read-out: GI50 MDA-MB-231 (breast)",> 50 µM
same,IC50,MDA-MB231 (breast); [6],> 50 µM
same,GI50,"2008 (ovarian); Homo sapiens, 48 hours continuous exposure, mean ± SD, N = 4, read-out: GI50 2008 (ovary)",> 50 µM
same,Displacement of [3H]paclitaxel (%),"[2]; N = 6, means ± SD",16 ± 3%
"C=CC=CC(C)[C@H]1OC(=O)C=CC=C[C@@H](C)[C@H](O)CCC=C[C@H](C)[C@H](O)[C@@H](C)C=CCC[C@@H](O)[C@H]1C (stereo partly drawn) [Compound 54, (7R,8R,13S,14S,15S,20R,21R,22R,23S)-8,14,20-Trihydroxy-7,13,15,21-tetramethyl-22-(1-methylpenta-2,4-dienyl)-oxacyclodocosa-3,5,11,16-tetraen-2-one]",GI50,"MDA-MB231 (breast); 72 hours continuous exposure (footnote b), mean ± SD, N = 4, read-out: GI50 MDA-MB-231 (breast)",1.4 ± 0.1 µM
same,IC50,MDA-MB231 (breast); [6],~1 µM
same,GI50,"2008 (ovarian); 72 hours continuous exposure (footnote b), mean ± SD, N = 4, read-out: GI50 2008 (ovary)",1 ± 0.1 µM
same,Displacement of [3H]paclitaxel (%),"[2]; N = 6, means ± SD",27 ± 8%
same,potency of [3H]paclitaxel displacement relative to discodermolide,[2]; [3H]paclitaxel stoichiometrically bound to microtubules,about ⅓
